C[C@@H]1OC(=O)[C@H](C)OC1=O
Conditions	solubility (mole fraction)
in acetone, 278.95 K	0.217
in acetone, 286.95 K	0.247
in acetone, 290.65 K	0.265
in acetone, 294.65 K	0.283
in acetone, 299.35 K	0.307
in acetone, 304.95 K	0.335
in acetone, 309.15 K	0.36
in acetone, 314.35 K	0.394
in acetone, 319.05 K	0.423
in acetone, 323.35 K	0.455
in acetone, 328.25 K	0.49
in ethanol, 283.95 K	0.00281
in ethanol, 288.65 K	0.00423
in ethanol, 295.35 K	0.00878
in ethanol, 299.95 K	0.0135
in ethanol, 303.45 K	0.031
in ethanol, 310.15 K	0.044
in ethanol, 314.65 K	0.0569
in ethanol, 319.95 K	0.081
in ethanol, 325.15 K	0.115
in ethanol, 329.25 K	0.161
in ethanol, 333.25 K	0.258
in ethanol, 336.45 K	0.337
in ethyl acetate, 277.05 K	0.115
in ethyl acetate, 282.35 K	0.131
in ethyl acetate, 287.65 K	0.147
in ethyl acetate, 296.15 K	0.178
in ethyl acetate, 301.65 K	0.199
in ethyl acetate, 305.15 K	0.221
in ethyl acetate, 308.35 K	0.242
in ethyl acetate, 313.15 K	0.272
in ethyl acetate, 318.25 K	0.311
in ethyl acetate, 324.95 K	0.369
in ethyl acetate, 331.35 K	0.436
in ethyl acetate, 336.35 K	0.491
in isopropanol, 279.65 K	0.00822
in isopropanol, 290.95 K	0.0131
in isopropanol, 295.65 K	0.017
in isopropanol, 299.95 K	0.0208
in isopropanol, 304.15 K	0.0256
in isopropanol, 309.35 K	0.0338
in isopropanol, 314.15 K	0.0455
in isopropanol, 318.65 K	0.0605
in isopropanol, 323.65 K	0.0854
in isopropanol, 329.15 K	0.127
in isopropanol, 333.15 K	0.177
in methanol, 278.25 K	0.0153
in methanol, 282.15 K	0.0221
in methanol, 284.15 K	0.0231
in methanol, 290.25 K	0.0302
in methanol, 294.25 K	0.0373
in methanol, 298.85 K	0.0474
in methanol, 302.25 K	0.0614
in methanol, 308.15 K	0.0895
in methanol, 311.45 K	0.116
in methanol, 315.75 K	0.126
in methanol, 322.25 K	0.204
in methanol, 332.55 K	0.282
in methanol, 333.15 K	0.337
in toluene, 278.55 K	0.0128
in toluene, 283.65 K	0.0211
in toluene, 286.95 K	0.0231
in toluene, 291.15 K	0.029
in toluene, 298.35 K	0.0371
in toluene, 303.15 K	0.0436
in toluene, 308.15 K	0.0666
in toluene, 315.95 K	0.0854
in toluene, 321.65 K	0.108
in toluene, 324.25 K	0.135
in toluene, 326.95 K	0.157

Reference: BigSolDB 2.1
